Data published in patent publication US20070117770A1, “Human ribosomal DNA (rDNA) and ribosomal RNA (rRNA) nucleic acids and uses thereof” (Cylene Pharmaceuticals, Inc., priority 2005, published 2007).

How the values were obtained:
Test in all cases: Protein kinase inhibition assay
Format in all cases: biochemical
[1] = molecular target: ASK1(h) (Homo sapiens, UniProt Q99683); conditions: read-out: percent residual activity of ASK1(h)
Experimental: (§1) Certain compounds were tested for activity in protein kinase inhibition assays. All substrates were dissolved and diluted to working stocks in de-ionized water, apart from histone H1 (10× working stock in 20 mM MOPS pH 7.0), PDKtide (10× working stock in 50 mM Tris pH 7.0) ATF2 (which is typically stored at a 20× working stock in 50 mM Tris pH 7.5, 150 mM NaCl, 0.1 mM EGTA, 0.03% Brij-35, 50% glycerol, 1 mM benzamidine, 0.2 mM PMSF and 0.1% R-mercaptoethanol), KKLNRTLSFAEPG (SEQ ID NO:203) and RRRLSFAEPG (SEQ ID NO:204) (50 mM HEPES pH 7.4) and GGEEEEYFELVKKKK (SEQ ID NO:205) (20 mM MOPS pH 7.0). All kinases were pre-diluted to a 10× working concentration prior to addition into the assay. The composition of the dilution buffer for each kinase is detailed below.
(§2) In a final reaction volume of 25 μl, ASK1 (h) (5-10 mU) is incubated with 8 mM MOPS pH 7.0, 0.2 mM EDTA, 0.33 mg/ml myelin basic protein, 10 mM MgAcetate and [gamma-33P-ATP] (specific activity approx. 500 cpm/pmol, concentration as required). The reaction is initiated by the addition of the MgATP mix. After incubation for 40 minutes at room temperature, the reaction is stopped by the addition of 5 μl of a 3% phosphoric acid solution. 10 μl of the reaction is then spotted onto a P30 filtermat and washed three times for 5 minutes in 75 mM phosphoric acid and once in methanol prior to drying and scintillation counting.

[2] = molecular target: CDK6/cyclinD3(h) (Homo sapiens, UniProt Q00534); conditions: read-out: percent residual activity of CDK6/cyclinD3(h)
Experimental: as §1
as §2, with “CDK6/cyclinD3” for “ASK1”, “0.1” for “0.33”, “histone H1,” for “myelin basic protein,”, “MGATP” for “MgATP”

[3] = molecular target: Lyn(h) (Homo sapiens, UniProt P07948); conditions: read-out: percent residual activity of Lyn(h)
Experimental: as §1
In a final reaction volume of 25 μl, Lyn (h) (5-10 mU) is incubated with 50 mM Tris pH 7.5, 0.1 mM EGTA, 0.1 mM Na3VO4, 0.1% R-mercaptoethanol, 0.1 mg/ml poly(Glu, Tyr) 4:1, 10 mM MgAcetate and [gamma-33P-ATP] (specific activity approx. 500 cpm/pmol, concentration as required). The reaction is initiated by the addition of the MgATP mix. After incubation for 40 minutes at room temperature, the reaction is stopped by the addition of 5 μl of a 3% phosphoric acid solution. […]

[4] = molecular target: PKBγ(h) (Homo sapiens, UniProt Q9Y243); conditions: read-out: percent residual activity of PKBγ(h)
Experimental: as §1
as §2, with “PKBγ” for “ASK1”, “30 μM GRPRTSSFAEGKK (SEQ ID NO:232),” for “0.33 mg/ml myelin basic protein,”

[5] = molecular target: ROCK-II(h) (Homo sapiens, UniProt O75116); conditions: read-out: percent residual activity of ROCK-II(h)
Experimental: as §1
as §2, with “ROCK-II” for “ASK1”, “50” for “8”, “Tris” for “MOPS”, “7.5, […] EGTA, 30 μM […] (SEQ ID NO:222),” for “7.0, 0.2 mM EDTA, 0.33 mg/ml myelin basic protein,”, “[y-33P-ATP]” for “[gamma-33P-ATP]”

[6] = molecular target: ROCK-II(r) (Rattus norvegicus, UniProt Q62868); conditions: read-out: percent residual activity of ROCK-II(r)
Experimental: as §1
as §2, with “ROCK-II (r)” for “ASK1 (h)”, “50” for “8”, “Tris” for “MOPS”, “7.5, 0.1” for “7.0, 0.2”, “EGTA, 30 μM […] (SEQ ID NO:222),” for “EDTA, 0.33 mg/ml myelin basic protein,”

Sequence of ROCK-II(r) (Q62868 whole entry): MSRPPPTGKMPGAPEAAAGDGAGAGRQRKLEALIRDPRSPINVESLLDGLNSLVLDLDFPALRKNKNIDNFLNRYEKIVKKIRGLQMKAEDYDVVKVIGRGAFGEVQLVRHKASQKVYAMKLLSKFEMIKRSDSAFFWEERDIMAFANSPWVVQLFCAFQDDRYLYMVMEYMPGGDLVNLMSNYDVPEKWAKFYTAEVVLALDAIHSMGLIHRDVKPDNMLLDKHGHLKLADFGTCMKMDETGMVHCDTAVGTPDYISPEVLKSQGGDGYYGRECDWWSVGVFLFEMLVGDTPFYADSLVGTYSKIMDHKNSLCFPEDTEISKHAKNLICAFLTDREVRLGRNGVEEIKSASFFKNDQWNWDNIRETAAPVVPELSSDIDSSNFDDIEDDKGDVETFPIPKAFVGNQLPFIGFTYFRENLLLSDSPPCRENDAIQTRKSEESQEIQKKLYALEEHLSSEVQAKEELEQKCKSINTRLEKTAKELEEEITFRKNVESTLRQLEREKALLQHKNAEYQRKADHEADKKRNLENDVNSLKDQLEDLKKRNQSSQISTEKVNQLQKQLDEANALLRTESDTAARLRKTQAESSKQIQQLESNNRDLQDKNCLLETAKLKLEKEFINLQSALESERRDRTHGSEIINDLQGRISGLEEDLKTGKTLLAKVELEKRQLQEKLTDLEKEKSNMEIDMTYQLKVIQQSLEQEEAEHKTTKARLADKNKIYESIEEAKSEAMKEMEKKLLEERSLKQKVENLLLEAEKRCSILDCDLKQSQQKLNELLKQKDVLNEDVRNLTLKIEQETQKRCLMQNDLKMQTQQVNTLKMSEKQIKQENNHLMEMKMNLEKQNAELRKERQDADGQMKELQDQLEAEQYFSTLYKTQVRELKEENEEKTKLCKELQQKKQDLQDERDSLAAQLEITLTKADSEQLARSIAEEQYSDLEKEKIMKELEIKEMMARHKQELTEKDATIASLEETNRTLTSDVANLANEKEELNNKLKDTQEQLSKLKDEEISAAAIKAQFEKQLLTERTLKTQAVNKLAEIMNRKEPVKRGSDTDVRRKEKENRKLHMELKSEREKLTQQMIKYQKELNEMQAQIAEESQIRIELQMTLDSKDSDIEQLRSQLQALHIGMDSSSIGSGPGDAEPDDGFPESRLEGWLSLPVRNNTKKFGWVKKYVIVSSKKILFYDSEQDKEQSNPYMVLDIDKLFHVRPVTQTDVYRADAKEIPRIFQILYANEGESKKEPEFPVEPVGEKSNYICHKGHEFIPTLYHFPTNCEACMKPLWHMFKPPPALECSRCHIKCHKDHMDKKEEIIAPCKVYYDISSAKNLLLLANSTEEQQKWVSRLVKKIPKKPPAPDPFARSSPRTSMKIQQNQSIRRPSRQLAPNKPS
Sequence of CDK6/cyclinD3(h) (Q00534 whole entry): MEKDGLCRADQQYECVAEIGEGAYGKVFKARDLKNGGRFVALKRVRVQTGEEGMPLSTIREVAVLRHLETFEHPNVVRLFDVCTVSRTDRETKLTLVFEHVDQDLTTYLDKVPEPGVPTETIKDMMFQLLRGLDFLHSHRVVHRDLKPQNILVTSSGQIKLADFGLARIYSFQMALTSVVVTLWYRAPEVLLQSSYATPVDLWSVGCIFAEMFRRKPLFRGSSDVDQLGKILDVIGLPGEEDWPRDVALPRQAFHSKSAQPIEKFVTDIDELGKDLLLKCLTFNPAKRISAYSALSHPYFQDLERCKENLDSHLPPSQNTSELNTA
Sequence of CDK6/cyclinD3(h) (P30281 whole entry partner): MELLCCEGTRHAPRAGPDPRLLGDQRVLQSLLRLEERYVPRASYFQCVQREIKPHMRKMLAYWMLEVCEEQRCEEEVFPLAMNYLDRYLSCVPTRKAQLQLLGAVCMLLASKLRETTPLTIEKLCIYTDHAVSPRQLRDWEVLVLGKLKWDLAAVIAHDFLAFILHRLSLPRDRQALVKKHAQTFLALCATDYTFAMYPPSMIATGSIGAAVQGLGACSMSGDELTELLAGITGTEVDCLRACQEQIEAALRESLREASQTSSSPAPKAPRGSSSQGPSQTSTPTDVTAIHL
Sequence of Lyn(h) (P07948 whole entry): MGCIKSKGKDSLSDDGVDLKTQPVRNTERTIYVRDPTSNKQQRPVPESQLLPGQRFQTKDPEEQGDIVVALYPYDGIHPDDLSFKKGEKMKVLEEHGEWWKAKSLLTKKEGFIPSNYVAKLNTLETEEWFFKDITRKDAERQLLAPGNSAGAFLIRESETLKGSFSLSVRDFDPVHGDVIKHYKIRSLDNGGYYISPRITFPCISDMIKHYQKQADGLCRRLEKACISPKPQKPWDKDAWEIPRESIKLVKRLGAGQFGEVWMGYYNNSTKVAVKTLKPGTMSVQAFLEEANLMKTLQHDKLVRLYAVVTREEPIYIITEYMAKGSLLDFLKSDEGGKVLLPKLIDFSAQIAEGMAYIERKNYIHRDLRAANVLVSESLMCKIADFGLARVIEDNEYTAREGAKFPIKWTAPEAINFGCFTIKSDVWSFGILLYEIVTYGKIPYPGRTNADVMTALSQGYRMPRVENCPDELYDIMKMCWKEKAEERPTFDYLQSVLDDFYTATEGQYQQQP
Sequence of ASK1(h) (Q99683 whole entry): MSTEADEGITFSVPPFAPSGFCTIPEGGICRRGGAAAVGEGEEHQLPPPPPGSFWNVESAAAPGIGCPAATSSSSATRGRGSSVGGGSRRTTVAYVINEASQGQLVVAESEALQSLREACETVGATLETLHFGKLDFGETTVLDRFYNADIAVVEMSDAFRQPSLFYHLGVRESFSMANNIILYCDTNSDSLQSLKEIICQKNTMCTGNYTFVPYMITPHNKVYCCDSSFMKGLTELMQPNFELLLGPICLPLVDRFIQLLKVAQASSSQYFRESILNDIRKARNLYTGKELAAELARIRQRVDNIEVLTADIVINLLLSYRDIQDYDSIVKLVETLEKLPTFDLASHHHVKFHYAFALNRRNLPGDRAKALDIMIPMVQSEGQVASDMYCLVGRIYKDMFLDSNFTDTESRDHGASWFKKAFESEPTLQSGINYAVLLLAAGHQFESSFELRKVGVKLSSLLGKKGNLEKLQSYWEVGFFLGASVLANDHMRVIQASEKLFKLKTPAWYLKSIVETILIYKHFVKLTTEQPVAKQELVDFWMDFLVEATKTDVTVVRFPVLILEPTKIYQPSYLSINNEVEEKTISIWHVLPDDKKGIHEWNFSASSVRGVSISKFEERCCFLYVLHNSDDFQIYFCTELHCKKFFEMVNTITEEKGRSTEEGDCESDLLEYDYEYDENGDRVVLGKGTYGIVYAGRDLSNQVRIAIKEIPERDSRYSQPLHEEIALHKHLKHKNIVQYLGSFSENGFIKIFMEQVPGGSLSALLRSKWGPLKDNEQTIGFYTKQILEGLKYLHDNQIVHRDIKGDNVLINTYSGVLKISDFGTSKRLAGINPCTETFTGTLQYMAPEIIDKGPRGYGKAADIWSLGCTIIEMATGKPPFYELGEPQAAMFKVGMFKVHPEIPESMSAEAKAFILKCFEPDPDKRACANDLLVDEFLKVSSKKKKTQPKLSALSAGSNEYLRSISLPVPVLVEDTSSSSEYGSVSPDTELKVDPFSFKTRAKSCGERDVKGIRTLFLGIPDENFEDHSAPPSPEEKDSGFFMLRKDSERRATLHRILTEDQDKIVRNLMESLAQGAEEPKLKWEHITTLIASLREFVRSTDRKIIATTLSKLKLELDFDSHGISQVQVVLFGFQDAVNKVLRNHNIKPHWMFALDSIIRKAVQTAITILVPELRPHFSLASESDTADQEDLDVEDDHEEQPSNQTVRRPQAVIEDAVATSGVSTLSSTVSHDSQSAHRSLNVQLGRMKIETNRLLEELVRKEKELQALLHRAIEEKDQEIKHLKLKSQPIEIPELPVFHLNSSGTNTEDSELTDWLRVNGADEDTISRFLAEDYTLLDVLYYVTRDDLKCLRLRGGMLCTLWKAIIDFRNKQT
Sequence of PKBγ(h) (Q9Y243 whole entry): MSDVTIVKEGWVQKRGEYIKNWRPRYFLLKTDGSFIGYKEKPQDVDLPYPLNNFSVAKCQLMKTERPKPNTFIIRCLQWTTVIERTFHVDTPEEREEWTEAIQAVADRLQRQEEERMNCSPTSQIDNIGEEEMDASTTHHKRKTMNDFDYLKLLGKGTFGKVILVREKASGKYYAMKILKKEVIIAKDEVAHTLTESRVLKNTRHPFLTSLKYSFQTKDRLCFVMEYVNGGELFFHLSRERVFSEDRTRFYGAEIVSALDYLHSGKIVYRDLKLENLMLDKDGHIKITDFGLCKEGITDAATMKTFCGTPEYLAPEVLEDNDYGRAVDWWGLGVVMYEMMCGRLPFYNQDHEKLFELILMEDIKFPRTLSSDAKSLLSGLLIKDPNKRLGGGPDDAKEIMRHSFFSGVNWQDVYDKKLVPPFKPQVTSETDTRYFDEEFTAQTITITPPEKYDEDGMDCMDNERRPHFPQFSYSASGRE

For `CN1CCCC1CCNC(=O)c1cn2c3c(c(N4CCC(c5cnccn5)C4)c(F)cc3c1=O)Oc1cc3ccccc3cc1-2` (stereo not drawn) [Compound A-1], which remaining activity at 2.5 µM [1] is on record?
The remaining activity at 2.5 µM was 98%.

What about the remaining activity at 2.5 µM [2] of the same molecule?
Its remaining activity at 2.5 µM is 85%.

What about the remaining activity at 2.5 µM [3] of the same molecule?
Its remaining activity at 2.5 µM is 110%.

What about the remaining activity at 2.5 µM [4] of the same molecule?
The remaining activity at 2.5 µM was 64%.

What about the remaining activity at 2.5 µM [5] of the same molecule?
Its remaining activity at 2.5 µM is 64%.

What about the remaining activity at 2.5 µM [6] of the same molecule?
Its remaining activity at 2.5 µM is 48%.

Which remaining activity at 2.5 µM [1] does the source give for `CC(=O)N1CCN(c2ccc3c(=O)c(C(=O)NCCN4CCCC4)c4n(C)c5ccccc5n4c3n2)CC1` [Compound B-1] here?
Its remaining activity at 2.5 µM is 110%.

And the remaining activity at 2.5 µM [2]?
Its remaining activity at 2.5 µM is 100%.

And the remaining activity at 2.5 µM [3]?
Its remaining activity at 2.5 µM is 122%.

And the remaining activity at 2.5 µM [4]?
The remaining activity at 2.5 µM was 95%.

And the remaining activity at 2.5 µM [5]?
Its remaining activity at 2.5 µM is 115%.

And the remaining activity at 2.5 µM [6]?
Its remaining activity at 2.5 µM is 103%.
